Measurements as given in ChEMBL document CHEMBL3044665, “Adzuki bean (Vigna angularis) responses to post-emergence herbicides” (Crop Prot, 2006).

Tests used:
Assay type in all cases: organism-based
Vigna angularis [1] = assay: Phytotoxicity in Vigna angularis (adzuki bean) assessed as visual injury at 2160 g ai/ha after 28 days applied as spray relative to untreated control; conditions: in vivo, other, 672 h
Vigna angularis [2] = assay: Phytotoxicity in Vigna angularis (adzuki bean) assessed as decrease in shoot dry weight at 2160 g ai/ha after 42 days applied as spray relative to untreated control; design: scale not given: the % may be the effect or the level left; conditions: in vivo, other, 1008 h
Vigna angularis [3] = assay: Phytotoxicity in Vigna angularis (adzuki bean) assessed as decrease in plant height at 2160 g ai/ha after 28 days applied as spray relative to untreated control; design: scale not given: the % may be the effect or the level left; conditions: in vivo, other, 672 h
Vigna angularis [4] = assay: Phytotoxicity in Vigna angularis (adzuki bean) assessed as visual injury at 1080 g ai/ha after 14 days applied as spray relative to untreated control; conditions: in vivo, other, 336 h
Vigna angularis [5] = assay: Phytotoxicity in Vigna angularis (adzuki bean) assessed as seed moisture content at 2160 g ai/ha after 42 days applied as spray (reference value: 13.9%); conditions: in vivo, other, 1008 h, at 2160 g/ha
Vigna angularis [6] = assay: Phytotoxicity in Vigna angularis (adzuki bean) assessed as visual injury at 2160 g ai/ha after 14 days applied as spray relative to untreated control; conditions: in vivo, other, 336 h
Phaseolus vulgaris [7] = assay: Phytotoxicity in Phaseolus vulgaris (dry bean) assessed as visual injury at 1080 g ai/ha applied as spray during post emergence relative to untreated control; conditions: in vivo, other
Vigna angularis [8] = assay: Phytotoxicity in Vigna angularis (adzuki bean) assessed as seed moisture content at 1080 g ai/ha after 42 days applied as spray (reference value: 13.9%); conditions: in vivo, other, 1008 h, at 1080 g/ha
Vigna angularis [9] = assay: Phytotoxicity in Vigna angularis (adzuki bean) assessed as decrease in shoot dry weight at 1080 g ai/ha after 42 days applied as spray relative to untreated control; design: scale not given: the % may be the effect or the level left; conditions: in vivo, other, 1008 h
Phaseolus vulgaris [10] = assay: Phytotoxicity in Phaseolus vulgaris (cranberry bean) assessed as visual injury at 1080 g ai/ha applied as spray during post emergence after 7 days relative to untreated control; conditions: in vivo, other, 168 h
Phaseolus vulgaris [11] = assay: Phytotoxicity in Phaseolus vulgaris (black bean) assessed as visual injury at 1080 g ai/ha applied as spray during post emergence after 7 days relative to untreated control; conditions: in vivo, other, 168 h
Phaseolus vulgaris [12] = assay: Phytotoxicity in Phaseolus vulgaris (white navy bean) assessed as decrease in crop yield relative to untreated control; conditions: in vivo
Vigna angularis [13] = assay: Phytotoxicity in Vigna angularis (adzuki bean) assessed as decrease in crop yield at 2160 g ai/ha measured during post emergence applied as spray relative to untreated control; conditions: in vivo, other
Vigna angularis [14] = assay: Phytotoxicity in Vigna angularis (adzuki bean) assessed as visual injury at 1080 g ai/ha after 7 days applied as spray relative to untreated control; conditions: in vivo, other, 168 h
Vigna angularis [15] = assay: Phytotoxicity in Vigna angularis (adzuki bean) assessed as visual injury at 2160 g ai/ha after 7 days applied as spray relative to untreated control; conditions: in vivo, other, 168 h
Vigna angularis [16] = assay: Phytotoxicity in Vigna angularis (adzuki bean) assessed as decrease in plant height at 1080 g ai/ha after 28 days applied as spray relative to untreated control; design: scale not given: the % may be the effect or the level left; conditions: in vivo, other, 672 h
Vigna angularis [17] = assay: Phytotoxicity in Vigna angularis (adzuki bean) assessed as decrease in crop yield at 1080 g ai/ha measured during post emergence applied as spray relative to untreated control; conditions: in vivo, other
Vigna angularis [18] = assay: Phytotoxicity in Vigna angularis (adzuki bean) assessed as visual injury at 1080 g ai/ha after 28 days applied as spray relative to untreated control; conditions: in vivo, other, 672 h
Vigna angularis [19] = assay: Phytotoxicity in Vigna angularis (adzuki bean) assessed as visual injury at 144 g ai/ha after 28 days applied as spray relative to untreated control; conditions: in vivo, other, 672 h
Vigna angularis [20] = assay: Phytotoxicity in Vigna angularis (adzuki bean) assessed as visual injury at 72 g ai/ha after 7 days applied as spray relative to untreated control; conditions: in vivo, other, 168 h
Vigna angularis [21] = assay: Phytotoxicity in Vigna angularis (adzuki bean) assessed as seed moisture content at 144 g ai/ha after 42 days applied as spray (reference value: 13.9%); conditions: in vivo, other, 1008 h, at 144 g/ha
Vigna angularis [22] = assay: Phytotoxicity in Vigna angularis (adzuki bean) assessed as crop yield at 72 g ai/ha measured during post emergence applied as spray (reference value: 2.05 t/ha); conditions: in vivo, other
Vigna angularis [23] = assay: Phytotoxicity in Vigna angularis (adzuki bean) assessed as shoot dry weight at 144 g ai/ha measured per 1 m row after 42 days applied as spray (reference value: 153 g); conditions: in vivo, other, 1008 h
Vigna angularis [24] = assay: Phytotoxicity in Vigna angularis (adzuki bean) assessed as visual injury at 144 g ai/ha after 7 days applied as spray relative to untreated control; conditions: in vivo, other, 168 h
Vigna angularis [25] = assay: Phytotoxicity in Vigna angularis (adzuki bean) assessed as plant height at 72 g ai/ha after 28 days applied as spray (RVB = 34 cm); conditions: in vivo, other, 672 h
Vigna angularis [26] = assay: Phytotoxicity in Vigna angularis (adzuki bean) assessed as crop yield at 144 g ai/ha measured during post emergence applied as spray (reference value: 2.05 t/ha); conditions: in vivo, other
Vigna angularis [27] = assay: Phytotoxicity in Vigna angularis (adzuki bean) assessed as shoot dry weight at 72 g ai/ha measured per 1 m row after 42 days applied as spray (reference value: 153 g); conditions: in vivo, other, 1008 h
Vigna angularis [28] = assay: Phytotoxicity in Vigna angularis (adzuki bean) assessed as seed moisture content at 72 g ai/ha after 42 days applied as spray (reference value: 13.9%); conditions: in vivo, other, 1008 h, at 72 g/ha
Vigna angularis [29] = assay: Phytotoxicity in Vigna angularis (adzuki bean) assessed as visual injury at 72 g ai/ha after 28 days applied as spray relative to untreated control; conditions: in vivo, other, 672 h
Vigna angularis [30] = assay: Phytotoxicity in Vigna angularis (adzuki bean) assessed as visual injury at 72 g ai/ha after 14 days applied as spray relative to untreated control; conditions: in vivo, other, 336 h
Vigna angularis [31] = assay: Phytotoxicity in Vigna angularis (adzuki bean) assessed as visual injury at 144 g ai/ha after 14 days applied as spray relative to untreated control; conditions: in vivo, other, 336 h
Vigna angularis [32] = assay: Phytotoxicity in Vigna angularis (adzuki bean) assessed as plant height at 144 g ai/ha after 28 days applied as spray (RVB = 34 cm); conditions: in vivo, other, 672 h

Q: Which results are given for `CC(C)N1C(=O)c2ccccc2NS1(=O)=O` [BENTAZON]?
A: Activity (Vigna angularis [1]): 38.1%; Activity (Vigna angularis [2]): 65%; Activity (Vigna angularis [3]): 43%; Activity (Vigna angularis [4]): 33.2%; Activity (Vigna angularis [5]): 15.3%; Activity (Vigna angularis [6]): 43.5%; Activity (Phaseolus vulgaris [7]): 3%; Activity (Vigna angularis [8]): 15%; Activity (Vigna angularis [9]): 60%; Activity (Phaseolus vulgaris [10]): < 2%; Activity (Phaseolus vulgaris [11]): < 3%; Crop_yield (Phaseolus vulgaris [12]): <= 21%; Crop_yield (Vigna angularis [13]): 56%; Activity (Vigna angularis [14]): 29.5%; Activity (Vigna angularis [15]): 36.4%; Activity (Vigna angularis [16]): 37%; Crop_yield (Vigna angularis [17]): 48%; Activity (Vigna angularis [18]): 29.8%

Q: With `CCOC(=O)[C@@H](C)Oc1ccc(Oc2cnc3cc(Cl)ccc3n2)cc1` [QUIZALOFOP-P-ETHYL] as the molecule, how does the Activity (Vigna angularis [19]) read?
A: The Activity was 0.8%.

Q: And the Activity (Vigna angularis [20])?
A: Its Activity is 1.4%.

Q: And the Activity (Vigna angularis [21])?
A: The Activity was 14.1%.

Q: And the Crop_yield (Vigna angularis [22])?
A: Its Crop_yield is 2.22 tons/ha.

Q: And the Activity (Vigna angularis [23])?
A: Its Activity is 135 g.

Q: And the Activity (Vigna angularis [24])?
A: The Activity was 2.4%.

Q: What about the Activity (Vigna angularis [25]) of the same molecule?
A: The Activity was 35.2 cm.

Q: And the Crop_yield (Vigna angularis [26])?
A: The Crop_yield was 2.08 tons/ha.

Q: And the Activity (Vigna angularis [27])?
A: Its Activity is 140 g.

Q: What about the Activity (Vigna angularis [28]) of the same molecule?
A: Its Activity is 13.9%.

Q: What about the Activity (Vigna angularis [29]) of the same molecule?
A: The Activity was 0.3%.

Q: What about the Activity (Vigna angularis [30]) of the same molecule?
A: The Activity was 1.2%.

Q: What about the Activity (Vigna angularis [31]) of the same molecule?
A: Its Activity is 1.8%.

Q: What about the Activity (Vigna angularis [32]) of the same molecule?
A: Its Activity is 33.2 cm.
